Data reported in patent US10330673B2, “Fluorescent chemical sensor for biological amines” (The Curators of the University of Missouri, priority 2013, dated 2019).

Assays:
[1] = Fluorescence titration of sensor with norepinephrine; format: binding; details: Table 2, analyte norepinephrine; for Ka: pH 5.0, 37° C.
Experimental: (§1) Fluorescence spectra were recorded on a Shimadzu RF-5301 PC spectrofluorometer at 37° C. A 1 mg/mL stock solution of I-2 in DMSO was prepared. A stock solution of I-2 in buffer (1×10^−5 M, 25 mM HEPES, 50 mM Na2S2O3, pH=5.0) was prepared. Norepinephrine, dopamine, epinephrine, and glutamate stock solutions were prepared by separately dissolving the analytes at the concentration to be used in the titration with the buffered stock solution of I-2 (thus avoiding dilution of I-2 during the experiment). I-2 was titrated with aliquots of analyte solution. The sensor was excited at 488 nm with slit widths of 5 nm.
(§2) Fluorescence spectra were recorded on a Shimadzu RF-5301 PC spectrofluorometer at 37° C. A separate 1 mg/mL stock solution of each coumarin-3-aldehyde derivative in DMSO was prepared. An aqueous stock solution of each derivative (10 μM) in buffer (25 mM HEPES, 50 mM Na2S2O3, pH=5.0) was prepared. Norepinephrine, dopamine, glutamate, and epinephrine stock solutions were prepared by separately dissolving the solid analytes at the concentration to be used in the titration with the buffered stock solutions described above and thus, avoiding dilution of the sensor during the experiment. The benzene-based NS521 derivatives were excited at 488 nm. The thiophene-based derivatives were excited at 515 nm.

[2] = Fluorescence titration of sensor with dopamine; format: binding; details: Table 2, analyte dopamine; for Ka: pH 5.0, 37° C.
Experimental: as §1, §2

[3] = Fluorescence titration of sensor with glutamate; format: binding; details: for F.E. / Ka: Table 2, analyte glutamate; for Ka: pH 5.0, 37° C.
Experimental: as §1, §2

[4] = Solubility in buffer for spectroscopic studies; format: physicochemical; details: 25 mM HEPES, 50 mM Na2S2O3, pH 5.0; DMSO cosolvent required
Experimental: Steady-state fluorescence spectroscopic studies were performed using a Horiba Scientific Fluorolog-3 Model FL3C-111 spectrofluorometer and data was collected and analyzed using HJY FluorEssence™ 3.5.1.20 software package. UV-visible spectra were obtained on a Varian Cary 1E UV-visible spectrophotometer. A stock solution of each benzene- or thiophene-based coumarin-3-aldehyde derivative (1 μM) in buffer (25 mM HEPES, 50 mM Na2S2O3, pH=5.0) was prepared. Each solution contained 1% (v/v) DMSO as a cosolvent except as noted. The slit width was 2 nm for both excitation and emission. The bound benzene- and thiophene-coumarin-3-aldehyde derivatives contained 500 mM glutamate (pH=5.0).

[5] = sensor of U.S. Pat. No. 7,977,120 B2; quenched by catechol group; cited from earlier work
[6] = test system: norepinephrine-enriched chromaffin cells; assay: Live-cell confocal imaging with NS539, norepinephrine-enriched cells; format: cell-based, bovine; details: 10 μM
Experimental: (§3) Norepinephrine- and epinephrine-secreting chromaffin cells were isolated from bovine adrenal glands, separately incubated with NS539 (2b, 10 μM), and imaged using confocal fluorescence microscopy. The live cells were imaged at 458 nm which would excite any potential unbound sensor and at 514 nm which would excite the bound sensor. […] The ratio of the mean corrected total cell fluorescence intensity of norepinephrine- over epinephrine-enriched cells was approximately 27-fold (FIG. 19G).
(§4) Chromaffin cells were prepared as previously described. Approximately 3 mL of each culture media containing suspended epinephrine- and norepinephrine-enriched cells was centrifuged at 1,000 rpm for 5 min. The pellets were suspended in 2 mL Dulbecco's Modified Eagle Medium (DMEM). NS539 was added (10 μM final concentration) and each cell suspension containing sensor incubated at 37° C. for 30 min. The cells were centrifuged, the supernatant removed, and washed twice with PBS buffer. Next, the cells were taken up into 6 mL standard cell bath solution and plated onto No. 1.5 γ-irradiated poly-D-lysine coated 35 mm glass-bottom dishes (MatTek Corporation). The cells incubated on the dishes 37° C. with 5% CO2 for 1 hr prior to imaging to promote adhesion. Live cell imaging studies were performed using a Zeiss LSM 510 META laser scanning confocal microscope (Carl Zeiss Microscopy, LLC) equipped with a C-Apochromat 63x/1.2 water immersion objective lens (Carl Zeiss Microscopy, LLC). The excitation wavelengths were 458 nm and 514 nm (pixel time: 6.4 μs, detector gain: 845, amplifier gain: 1.00, amplifier offset: −0.05, pinhole: 328 μm). Image acquisition was performed using Zeiss AIM 4.2 software package (Carl Zeiss Microscopy, LLC). To compare the fluorescence intensities of the norepinephrine- vs. the epinephrine-enriched cells, the mean corrected total cell fluorescence intensities were obtained using ImageJ (National Institute of Health).

[7] = test system: epinephrine-enriched chromaffin cells; assay: Live-cell confocal imaging with NS539, epinephrine-enriched cells; format: cell-based, bovine; details: 10 μM
Experimental: as §3, §4

[8] = 1.0 μM in water (pH 7); fluorescence standard; cited from earlier work
[9] = benzene-based compounds I, excited at 488 nm
[10] = thiophene-based compounds II, excited at 515 nm
[11] = excitation at 514 nm (bound sensor)
[12] = ± standard deviation (n=6), 535-590 nm bandpass filter

Row | Structure (SMILES) | F.E. [1, 9] | Ka [1, 9] [M⁻¹] | F.E. [2, 9] | Ka [2, 9] [M⁻¹] | F.E. [3, 9] | Ka [3, 9] [M⁻¹] | also measured
1 | CCOC(=O)c1ccc(-c2c(C=O)c(=O)oc3cc(N(CC)CC)ccc23)cc1 [Compound I-7] | 1.79 | 81.50 | 1.13 | 107.45 | 4.68 | 6.95 | solubility in buffer [4]: solubility issues
2 | CCN(CC)c1ccc2c(-c3ccc(SC)cc3)c(C=O)c(=O)oc2c1 [Compound I-11] | 6.46 | 68.82 | 3.10 | 87.11 | 9.76 | 8.40 | –
3 | CCN(CC)c1ccc2c(CCCCCN(C)Cc3ccccc3B(O)O)c(C=O)c(=O)oc2c1 ['120 sensor] | – | – | – | – | – | – | mode of fluorescence response [5]: turn-off mode
4 | CCN(CC)c1ccc2c(-c3ccc(OC)c(OC)c3)c(C=O)c(=O)oc2c1 [Compound I-3] | 4.11 | 107.17 | 2.69 | 177.46 | 6.56 | 10.21 | –
5 | CCN(CC)c1ccc2c(-c3ccc(OC)c(F)c3)c(C=O)c(=O)oc2c1 [Compound I-8] | 6.36 | 70.18 | 3.06 | 92.94 | 9.31 | 8.96 | –
6 | CCN(CC)c1ccc2c(-c3ccc(OC)c(C)c3)c(C=O)c(=O)oc2c1 [Compound I-6] | 3.89 | 135.98 | 2.41 | 192.05 | 6.36 | 10.25 | –
7 | CCN(CC)c1ccc2c(-c3ccc(Cl)s3)c(C=O)c(=O)oc2c1 [II-4] | – | – | – | – | – | – | F.E. [1, 10]: 20.78; Ka [1, 10]: 69.25 M⁻¹; F.E. [2, 10]: 12.39; Ka [2, 10]: 83.96 M⁻¹; F.E. [3, 10]: 33.96; Ka [3, 10]: 5.90 M⁻¹
8 | CCN(CC)c1ccc2c(-c3cc4ccccc4s3)c(C=O)c(=O)oc2c1 [II-5] | – | – | – | – | – | – | F.E. [1, 10]: 16.62; Ka [1, 10]: 49.65 M⁻¹; F.E. [2, 10]: 9.53; Ka [2, 10]: 49.26 M⁻¹; F.E. [3, 10]: 29.65; Ka [3, 10]: 5.25 M⁻¹
9 | CCN(CC)c1ccc2c(-c3cc(OC)c(OC)c(OC)c3)c(C=O)c(=O)oc2c1 [Compound I-4] | 2.56 | 159.08 | 1.62 | 205.13 | 5.57 | 10.25 | selectivity of fluorescent response for glutamate over dopamine and norepinephrine ([3]; series 1 sensors, in words): best glutamate-selective sensor
10 | CCN(CC)c1ccc2c(-c3cccs3)c(C=O)c(=O)oc2c1 [II-1] | – | – | – | – | – | – | F.E. [1, 10]: 47.95; Ka [1, 10]: 65.15 M⁻¹; F.E. [2, 10]: 25.42; Ka [2, 10]: 43.55 M⁻¹; F.E. [3, 10]: 57.17; Ka [3, 10]: 7.32 M⁻¹; ratio of mean corrected total cell fluorescence intensity of norepinephrine- over epinephrine-enriched cells [6]: approximately 27 fold; cell fluorescence, confocal microscopy [6, 11]: strong punctate fluorescence; mean corrected total cell fluorescence intensity [6, 12]: 51.0±2.6; cell fluorescence, confocal microscopy ([6]; λex = 458 nm (unbound sensor)): no measurable fluorescence response; cell fluorescence, confocal microscopy ([7]; excitation at 458 nm (unbound sensor)): no fluorescence; cell fluorescence, confocal microscopy [7, 11]: marginal fluorescence response; mean corrected total cell fluorescence intensity [7, 12]: 1.86±0.98
11 | CCN(CC)c1ccc2c(-c3ccc(C)s3)c(C=O)c(=O)oc2c1 [II-2] | – | – | – | – | – | – | F.E. [1, 10]: 32.35; Ka [1, 10]: 58.72 M⁻¹; F.E. [2, 10]: 22.18; Ka [2, 10]: 54.61 M⁻¹; F.E. [3, 10]: 47.67; Ka [3, 10]: 6.11 M⁻¹
12 | CCN(CC)c1ccc2c(-c3cc(C)cs3)c(C=O)c(=O)oc2c1 [II-3] | – | – | – | – | – | – | F.E. [1, 10]: 38.35; Ka [1, 10]: 63.65 M⁻¹; F.E. [2, 10]: 23.41; Ka [2, 10]: 51.10 M⁻¹; F.E. [3, 10]: 51.15; Ka [3, 10]: 7.40 M⁻¹
13 | CCN(CC)c1ccc2c(-c3ccccc3C(=O)O)c3ccc(=[N+](CC)CC)cc-3oc2c1.[Cl-] [rhodamine B] | – | – | – | – | – | – | absolute Φfl [8]: 0.31
14 | CCN(CC)c1ccc2c(-c3ccc(-c4ccccc4)cc3)c(C=O)c(=O)oc2c1 [Compound I-9] | 2.57 | 148.79 | 1.62 | 203.29 | 6.22 | 13.84 | solubility in buffer [4]: solubility issues
15 | CCN(CC)c1ccc2c(-c3cccc4ccccc34)c(C=O)c(=O)oc2c1 [Compound I-10] | 4.30 | 103.56 | 2.86 | 170.10 | 6.81 | 10.08 | –
16 | CCN(CC)c1ccc2c(-c3ccccc3)c(C=O)c(=O)oc2c1 [Compound I-1] | 6.62 | 68.68 | 3.23 | 68.07 | 10.45 | 9.43 | –
17 | CCN(CC)c1ccc2c(-c3cccc(C)c3)c(C=O)c(=O)oc2c1 [Compound I-5] | 6.59 | 68.40 | 3.17 | 74.13 | 9.97 | 9.17 | –
